Target: Vasopressin V2 (Rattus norvegicus, UniProt Q00788)
Experiment: Vasopressin V2 agonist effects in normal conscious water-loaded rats
Assay type: in vivo
Design: from tissue; host or cells: whole living Sprague-Dawley rat; the receptor is the animal's own (renal, by own knowledge)
Settings: Sprague-Dawley (CD) rats, 10 mg/kg oral; for Osmolality (% Increase): change in osmolality as percent of control; for Urine Volume (% decrease): vs. control, urine collected four hours
Text: Vasopressin V2 Agonist Effects of Test Compounds in Normal Conscious Water-loaded Rats
Male or female normotensive Sprague-Dawley rats (Charles River Laboratories, Inc., Kingston, N.Y.) of 350-500 g body weight were supplied with standard rodent diet (Purina Rodent Lab. Chow 5001) and water ad libitum. On the day of test, rats were placed individually into metabolic cages equipped with devices to separate the feces from the urine and containers for collection of urine. […] The vehicle used was 20% dimethylsulfoxide (DMSO) in 2.5% preboiled corn starch. Thirty minutes after dosing the test compound, rats were gavaged with water at 30 ml/kg into the stomach using a feeding needle. During the test, rats were not provided with water or food. Urine was collected for four hours after dosing of the test compound. At the end of four hours, urine volume was measured. Urinary osmolality was determined using a Fiske One-Ten Osmometer (Fiske Associates, Norwood, Mass., 02062) or an Advanced CRYOMATIC Osmometer, Model 3C.2 (Advanced Instruments, Norwood, Mass.). Determinations of Na^+, K^+ and Cl^− ion were carried out using ion specific electrodes in a Beckman SYNCHRON EL-ISE Electrolyte System analyzer. The urinary osmolality should increase proportionally. In the screening test, two rats were used for each compound. If the difference in the urine volume of the two rats was greater than 50%, a third rat was used.

Sequence of Vasopressin V2 (Q00788 whole entry): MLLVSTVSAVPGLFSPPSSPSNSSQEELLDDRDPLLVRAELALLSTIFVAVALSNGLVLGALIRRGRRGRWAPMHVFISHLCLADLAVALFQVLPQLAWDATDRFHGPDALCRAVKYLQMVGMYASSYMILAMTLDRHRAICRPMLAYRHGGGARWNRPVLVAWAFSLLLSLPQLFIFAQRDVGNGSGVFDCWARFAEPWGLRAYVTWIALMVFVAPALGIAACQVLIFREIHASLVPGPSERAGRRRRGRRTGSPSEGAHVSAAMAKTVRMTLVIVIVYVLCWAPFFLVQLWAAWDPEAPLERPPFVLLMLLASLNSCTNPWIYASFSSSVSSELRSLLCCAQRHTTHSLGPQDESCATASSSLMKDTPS

Row | Compound | Osmolality (% Increase) [%] | Urine Volume (% decrease) [%]
1 | Cn1nccc1-c1ccc(C(=O)N2Cc3ccnn3Cc3ccccc32)cc1 [Example 120B, [4-(2-Methyl-1H-pyrazol-3-yl)phenyl](4H,1OH-pyrazolo[5,1c][1,4]-benzodiazepin-5-yl)methanone] | 272 | 67
2 | Cc1ccn(-c2ccc(C(=O)N3Cc4cccn4Cc4ccccc43)cc2)n1 [Example 59, [4-(3-Methyl-pyrazol-1-yl)-phenyl]-(5H,11H-pyrrolo[2,1-c][1,4]-benzodiazepin-10-yl)-methanone] | 607 | 80
3 | O=C(c1ccc(-c2ccn(C(=O)c3ccccc3-c3ccc(C(F)(F)F)cc3)n2)cc1)N1Cc2cccn2Cc2ccccc21 [Example 41, {4-[1-(4′-Trifluoromethyl-biphenyl-2-carbonyl)-1H-pyrazol-3-yl]-phenyl}-(5H,11H-pyrrolo[2,1-c][1,4]benzodiazepin-10-yl)-methanone] | 240 | 69
4 | O=C(c1ccc(-n2cncn2)cc1C(F)(F)F)N1Cc2cccn2Cc2ccccc21 [Example 7, (5H,11H-Pyrrolo[2,1-c][1,4]benzodiazepin-10-yl)-(4-[1,2,4]triazol-1-yl-2-trifluoromethylphenyl)-methanone] | 137 | 13
5 | Cn1ccc(-c2ccc(C(=O)N3Cc4cccn4Cc4ccccc43)cc2)n1 [Example 25, [4-(1-Methyl-1H-pyrazolyl-3-yl)-phenyl]-(5H,11H-pyrrolo[2,1-c][1,4]-benzodiazepin-10-yl)-methanone] | 979 | 87
6 | COc1cc(-n2ccc(C)n2)ccc1C(=O)N1Cc2cccn2Cc2ccccc21 [Example 107, [2-Methoxy-4-(3-methyl-pyrazol-1-yl)-phenyl](5H,11H-pyrrolo[2,1-c][1,4]-benzodiazepin-10-yl) Methanone] | 125 | 31
7 | Cn1ccc(-c2ccc(C(=O)N3Cc4ccnn4Cc4ccccc43)cc2)n1 [Example 120A, [4-(1-Methyl-1H-pyrazol-3-yl)phenyl](4H,10H-pyrazolo[5,1c][1,4]-benzodiazepin-5-yl)methanone] | 269 | 66
8 | Cc1ccn(-c2ccc(C(=O)N3Cc4nnnn4Cc4ccccc43)c(Cl)c2)n1 [Example 117] | 311 | 68
9 | COc1cc(-n2ccc(C)n2)ccc1C(=O)N1Cc2ccc(CN(C)C)n2Cc2ccccc21 [Example 108, (3-Dimethylaminomethyl-5H,11H-pyrrolo[2,1-c][1,4]benzodiazepin-10-yl)[2-methoxy-4-(3-methyl-pyrazol-1-yl)-phenyl]-methanone] | 145 | 30
10 | N#Cc1ccc(C(=O)N2Cc3cccn3Cc3ccccc32)c(Cl)c1 [Example 77, 3-Chloro-4-(5H,11H-pyrrolo[2,1-c][1,4]benzodiazepine-10-carbonyl)-benzonitrile] | 90 | 13

Results, then the compound that gave them:

Row | Osmolality (% Increase) [%] | Urine Volume (% decrease) [%] | Compound
11 | 38 | 47 | O=C(c1ccc(-n2cccc2)cc1Cl)N1Cc2cccn2Cc2ccccc21 [Example 15, (2-Chloro-4-pyrrol-1-yl-phenyl)-(5H,11H-pyrrolo[2,1-c][1,4]benzodiazepin-10-yl)-methanone]
12 | 159 | 47 | O=C(c1ccc(-c2cc[nH]n2)cc1)N1Cc2cccn2Cc2ccccc21 [Example 24, [4-(1H-Pyrazol-3-yl)-phenyl]-(5H,11H-pyrrolo[2,1-c][1,4]benzodiazepin-10-yl)-methanone]
13 | 322 | 80 | CC(=O)c1ccc(C(=O)N2Cc3cccn3Cc3ccccc32)cc1 [Example 22, 1-[4-(5H,11H-Pyrrolo[2,1-c][1,4]benzodiazepine-10-carbonyl)-phenyl]-ethanone]
14 | 291 | 56 | [2-Chloro-4-(2-methyl-2H-[1,2,4]triazol-3-yl)-phenyl]-(5H,11H-pyrrolo [2,1-c][1,4]benzodiazepin-10-carbonyl)-methanone [Example 84]
15 | 413 | 61 | Cc1ccn(-c2ccc(C(=O)N3Cc4cccn4Cc4ccccc43)c(Br)c2)n1 [Example 90]
16 | 240 | 58 | Cc1cnn(-c2ccc(C(=O)N3Cc4cccn4Cc4ccccc43)c(C(F)(F)F)c2)c1 [Example 3, [4-(4-Methyl-pyrazol-1-yl)-2-trifluoromethyl-phenyl]-(5H,11H-pyrrolo[2,1-c][1,4]benzodiazepin-10-yl)-methanone]
17 | 308 | 63 | Cc1ccc(F)cc1C(=O)n1ccc(-c2ccc(C(=O)N3Cc4cccn4Cc4ccccc43)cc2)n1 [Example 35, {4-[1-(5-Fluoro-2-methyl-benzoyl)-1H-pyrazol-3-yl]-phenyl}-(5H,11H-pyrrolo[2,1-c][1,4]benzodiazepin-10-yl)-methanone]
18 | 298 | 72 | CCC(=O)n1ccc(-c2ccc(C(=O)N3Cc4cccn4Cc4ccccc43)cc2)n1 [Example 31, 1-{3-[4-(5H,11H-Pyrrolo[2,1-c][1,4]benzodiazepine-10-carbonyl)-phenyl]-pyrazol-1-yl}-propan-1-one]
19 | 663 | 88 | [2-Chloro-4-(3-methyl-4-ethynyl-phenyl) (5H,11H-pyrrolo[2,1-c][1,4]-benzodiazepin-10-yl)-methanone [Example 123]
20 | 183 | 76 | CCCn1ccc(-c2ccc(C(=O)N3Cc4cccn4Cc4ccccc43)cc2)n1 [Example 27, [4-(1-Propyl-1H-pyrazol-3-yl)-phenyl]-(5H,11H-pyrrolo[2,1-c][1,4]-benzodiazepin-10-yl)-methanone]
21 | 400 | 88 | O=C(c1ccc(-n2cccn2)cc1Cl)N1Cc2cccn2Cc2ccccc21 [Example 16, (2-Chloro-4-pyrazol-1-yl-phenyl)(5H,11H-Pyrrolo[2,1-c][1,4]benzodiazepin-10-yl)-methanone]
22 | 231 | 56 | O=C(c1ccc(-n2ccc(C3CC3)n2)cc1C(F)(F)F)N1Cc2cccn2Cc2ccccc21 [Example 5, [4-(3-Cyclopropyl-pyrazol-1-yl)-2-trifluoromethy-phenyl]-(5H,11H-pyrrolo[2,1-c][1,4]benzodiazepin-10-yl)-methanone]
23 | 225 | 57 | O=C(c1ccc(-n2cccn2)cc1C(F)(F)F)N1Cc2cccn2Cc2ccccc21 [Example 4, (4-Pyrazol-1-yl-2-trifluoromethyl-phenyl)-(5H,11H-pyrrolo[2,1-c][1,4]benzodiazepin-10-yl)-methanone]
24 | 229 | 66 | Cn1cc(-c2ccc(C(=O)N3Cc4cccn4Cc4ccccc43)c(Cl)c2)cn1 [Example 115, [2-Chloro-4-(1-methyl-1H-pyrazol-4-yl)phenyl) (5H,11H-pyrrolo[2,1-c][1,4]-benzodiazepin-10-yl)-methanone]

— patent publication US6831079B1, “Vasopressin agonist formulation and process” (American Cyanamid Company, priority 1999, dated 2004)
